Assay results reported in patent EP4691482A1, “LONG-ACTING CALCITONIN ANALOG” (Chengdu Aoda Biotechnology Co., Ltd., priority 2023, dated 2024).

Target: T1, calcitonin receptors (CTR) (Homo sapiens, UniProt P30988)
T1 construct: expressed in transfected cells; host or cells: cAMP Hunter HEK293-CT-R Gs cell line (HEK293, stably transfected)
T1 sequence (P30988 25-474): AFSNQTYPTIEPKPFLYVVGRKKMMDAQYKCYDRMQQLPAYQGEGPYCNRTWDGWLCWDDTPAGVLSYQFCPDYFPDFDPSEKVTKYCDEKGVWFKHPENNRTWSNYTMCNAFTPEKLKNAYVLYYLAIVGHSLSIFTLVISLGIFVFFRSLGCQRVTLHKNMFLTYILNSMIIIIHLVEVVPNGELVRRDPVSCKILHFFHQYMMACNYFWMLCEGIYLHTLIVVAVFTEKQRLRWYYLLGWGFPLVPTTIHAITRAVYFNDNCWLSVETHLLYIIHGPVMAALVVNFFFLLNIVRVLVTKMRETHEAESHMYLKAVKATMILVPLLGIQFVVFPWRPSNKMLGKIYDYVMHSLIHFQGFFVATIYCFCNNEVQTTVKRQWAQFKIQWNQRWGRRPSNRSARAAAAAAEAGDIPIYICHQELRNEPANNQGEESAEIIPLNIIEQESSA
Assay: cAMP determination (HTRF, cAMP Dynamic 2 Kit) in cAMP Hunter HEK293-CT-R Gs cell line
Format: cell-based
Details: for EC50: HEK293 cell line stably expressing CT-R, intracellular cAMP, HTRF; for Relative Activity%: relative to Salmon Calcitonin = 100.0, HEK293 CT-R cAMP
From the text: Upon activation by a ligand, Gas-coupled GPCRs can upregulate intracellular cAMP level, and cAMP, as a second messenger, can mediate a series of cellular responses. The cAMP Hunter HEK293-CT-R Gs cell line, which overexpresses Gas-coupled calcitonin receptors (CTR), was used. The binding of calcitonin (or an analog thereof) to the overexpressed CTR upregulates intracellular cAMP level. The amount of intracellular cAMP produced after activation by the calcitonin (or an analog thereof) was detected using a cAMP Dynamic 2 Kit to evaluate the biological activity of the calcitonin (or an analog thereof). HEK293 cell line stably expressing CT-R was used. Stably transfected cells were stimulated with various concentrations of agonists. The time-resolved fluorescence resonance energy signal from the cells after stimulation with different doses was measured using HTRF technology, from which the biological activity of the agonist was subsequently calculated.

EC50 [pM] | Relative Activity% [%] | SMILES
3.5 | – | CC(C)C[C@H](NC(=O)[C@H](CCCCN)NC(=O)CNC(=O)[C@H](CC(C)C)NC(=O)[C@@H](NC(=O)[C@@H]1CSSC[C@H](N)C(=O)N[C@@H](CO)C(=O)N[C@@H](CC(N)=O)C(=O)N[C@@H](CC(C)C)C(=O)N[C@@H](CO)C(=O)N[C@@H]([C@@H](C)O)C(=O)N1)C(C)C)C(=O)N[C@@H](CO)C(=O)N[C@@H](CCC(N)=O)C(=O)N[C@@H](CCC(=O)O)C(=O)N[C@@H](CC(C)C)C(=O)N[C@@H](Cc1c[nH]cn1)C(=O)N[C@@H](CCCCNC(=O)CNC(=O)CNC(=O)CNC(=O)CNC(=O)CC[C@H](NC(=O)CCCCCCCCCCCCCCCCCCC(=O)O)C(=O)O)C(=O)N[C@@H](CC(C)C)C(=O)N[C@@H](CCC(N)=O)C(=O)N[C@H](C(=O)N[C@@H](Cc1ccc(O)cc1)C(=O)N1CCC[C@H]1C(=O)N[C@@H](CCCNC(=N)N)C(=O)N[C@H](C(=O)N[C@@H](CC(N)=O)C(=O)N[C@H](C(=O)NCC(=O)N[C@@H](CO)C(=O)NCC(=O)N[C@H](C(=O)N1CCC[C@H]1C(N)=O)[C@@H](C)O)[C@@H](C)O)[C@@H](C)O)[C@@H](C)O [Compound 13]
3.1 | – | CC(C)C[C@H](NC(=O)[C@H](CCCCN)NC(=O)CNC(=O)[C@H](CC(C)C)NC(=O)[C@@H](NC(=O)[C@@H]1CSSC[C@H](N)C(=O)N[C@@H](CO)C(=O)N[C@@H](CC(N)=O)C(=O)N[C@@H](CC(C)C)C(=O)N[C@@H](CO)C(=O)N[C@@H]([C@@H](C)O)C(=O)N1)C(C)C)C(=O)N[C@@H](CO)C(=O)N[C@@H](CCC(N)=O)C(=O)N[C@@H](CCC(=O)O)C(=O)N[C@@H](CC(C)C)C(=O)N[C@@H](Cc1c[nH]cn1)C(=O)N[C@@H](CCCCNC(=O)COCCOCCNC(=O)COCCOCCNC(=O)COCCOCCNC(=O)CC[C@H](NC(=O)CCCCCCCCCCCCCCCCCCC(=O)O)C(=O)O)C(=O)N[C@@H](CC(C)C)C(=O)N[C@@H](CCC(N)=O)C(=O)N[C@H](C(=O)N[C@@H](Cc1ccc(O)cc1)C(=O)N1CCC[C@H]1C(=O)N[C@@H](CCCNC(=N)N)C(=O)N[C@H](C(=O)N[C@@H](CC(N)=O)C(=O)N[C@H](C(=O)NCC(=O)N[C@@H](CO)C(=O)NCC(=O)N[C@H](C(=O)N1CCC[C@H]1C(N)=O)[C@@H](C)O)[C@@H](C)O)[C@@H](C)O)[C@@H](C)O [Compound 17, Cys-Ser-Asn-Leu-Ser-Thr-Cys-Val-Leu-Gly-Lys-Leu-Ser-Gln-Glu-Leu-His-Lys(AEEA-AEEA-AEEA-γGlu-eicosanedioic acid)-Leu-Gln-Thr-T yr-Pro-Arg-Thr-Asn-Thr-Gly-Ser-Gly-Thr-Pro-NH2]
4.9 | – | CC(C)C[C@H](NC(=O)[C@H](CCCCN)NC(=O)CNC(=O)[C@H](CC(C)C)NC(=O)[C@@H](NC(=O)[C@@H]1CSSC[C@H](N)C(=O)N[C@@H](CO)C(=O)N[C@@H](CC(N)=O)C(=O)N[C@@H](CC(C)C)C(=O)N[C@@H](CO)C(=O)N[C@@H]([C@@H](C)O)C(=O)N1)C(C)C)C(=O)N[C@@H](CO)C(=O)N[C@@H](CCC(N)=O)C(=O)N[C@@H](CCC(=O)O)C(=O)N[C@@H](CC(C)C)C(=O)N[C@@H](Cc1c[nH]cn1)C(=O)N[C@@H](CCCCNC(=O)CNC(=O)CC[C@H](NC(=O)CCCCCCCCCCCCCCCCCCC(=O)O)C(=O)O)C(=O)N[C@@H](CC(C)C)C(=O)N[C@@H](CCC(N)=O)C(=O)N[C@H](C(=O)N[C@@H](Cc1ccc(O)cc1)C(=O)N1CCC[C@H]1C(=O)N[C@@H](CCCNC(=N)N)C(=O)N[C@H](C(=O)N[C@@H](CC(N)=O)C(=O)N[C@H](C(=O)NCC(=O)N[C@@H](CO)C(=O)NCC(=O)N[C@H](C(=O)N1CCC[C@H]1C(N)=O)[C@@H](C)O)[C@@H](C)O)[C@@H](C)O)[C@@H](C)O [Compound 10, Cys-Ser-Asn-Leu-Ser-Thr-Cys-Val-Leu-Gly-Lys-Leu-Ser-Gln-Glu-Leu-His-Lys(Gly-yGlu-eicosanedioic acid)-Leu-Gln-Thr-Tyr-Pro-Arg-Thr-Asn-Thr-Gly-Ser-Gly-Thr-Pro-NH2]
– | 206.5 | CC(C)C[C@H](NC(=O)[C@H](CCCCN)NC(=O)CNC(=O)[C@H](CC(C)C)NC(=O)[C@@H](NC(=O)[C@@H]1CSSC[C@H](N)C(=O)N[C@@H](CO)C(=O)N[C@@H](CC(N)=O)C(=O)N[C@@H](CC(C)C)C(=O)N[C@@H](CO)C(=O)N[C@@H]([C@@H](C)O)C(=O)N1)C(C)C)C(=O)N[C@@H](CO)C(=O)N[C@@H](CCC(N)=O)C(=O)N[C@@H](CCC(=O)O)C(=O)N[C@@H](CC(C)C)C(=O)N[C@@H](Cc1c[nH]cn1)C(=O)N[C@@H](CCCCNC(=O)COCCNC(=O)CC[C@H](NC(=O)CCCCCCCCCCCCCCCCCCC(=O)O)C(=O)O)C(=O)N[C@@H](CC(C)C)C(=O)N[C@@H](CCC(N)=O)C(=O)N[C@H](C(=O)N[C@@H](Cc1ccc(O)cc1)C(=O)N1CCC[C@H]1C(=O)N[C@@H](CCCNC(=N)N)C(=O)N[C@H](C(=O)N[C@@H](CC(N)=O)C(=O)N[C@H](C(=O)NCC(=O)N[C@@H](CO)C(=O)NCC(=O)N[C@H](C(=O)N1CCC[C@H]1C(N)=O)[C@@H](C)O)[C@@H](C)O)[C@@H](C)O)[C@@H](C)O [Compound 1, Cys-Ser-Asn-Leu-Ser-Thr-Cys-Val-Leu-Gly-Lys-Leu-Ser-Gln-Glu-Leu-His-Lys(PEG1CH2CO-γGlu-eicosanedioic acid)-Leu-Gln-Thr-Tyr-Pro-Arg-Thr-Asn-Thr-Gly-Ser-Gly-Thr-Pro-NH2]
4.3 | – | CC(C)C[C@H](NC(=O)[C@H](CCCCN)NC(=O)CNC(=O)[C@H](CC(C)C)NC(=O)[C@@H](NC(=O)[C@@H]1CSSC[C@H](N)C(=O)N[C@@H](CO)C(=O)N[C@@H](CC(N)=O)C(=O)N[C@@H](CC(C)C)C(=O)N[C@@H](CO)C(=O)N[C@@H]([C@@H](C)O)C(=O)N1)C(C)C)C(=O)N[C@@H](CO)C(=O)N[C@@H](CCC(N)=O)C(=O)N[C@@H](CCC(=O)O)C(=O)N[C@@H](CC(C)C)C(=O)N[C@@H](Cc1c[nH]cn1)C(=O)N[C@@H](CCCCNC(=O)CNC(=O)CNC(=O)CC[C@H](NC(=O)CCCCCCCCCCCCCCCCCCC(=O)O)C(=O)O)C(=O)N[C@@H](CC(C)C)C(=O)N[C@@H](CCC(N)=O)C(=O)N[C@H](C(=O)N[C@@H](Cc1ccc(O)cc1)C(=O)N1CCC[C@H]1C(=O)N[C@@H](CCCNC(=N)N)C(=O)N[C@H](C(=O)N[C@@H](CC(N)=O)C(=O)N[C@H](C(=O)NCC(=O)N[C@@H](CO)C(=O)NCC(=O)N[C@H](C(=O)N1CCC[C@H]1C(N)=O)[C@@H](C)O)[C@@H](C)O)[C@@H](C)O)[C@@H](C)O [Compound 11]
4.4 | – | CC(C)C[C@H](NC(=O)[C@H](CCCCN)NC(=O)CNC(=O)[C@H](CC(C)C)NC(=O)[C@@H](NC(=O)[C@@H]1CSSC[C@H](N)C(=O)N[C@@H](CO)C(=O)N[C@@H](CC(N)=O)C(=O)N[C@@H](CC(C)C)C(=O)N[C@@H](CO)C(=O)N[C@@H]([C@@H](C)O)C(=O)N1)C(C)C)C(=O)N[C@@H](CO)C(=O)N[C@@H](CCC(N)=O)C(=O)N[C@@H](CCC(=O)O)C(=O)N[C@@H](CC(C)C)C(=O)N[C@@H](Cc1c[nH]cn1)C(=O)N[C@@H](CCCCNC(=O)CNC(=O)[C@H](CO)NC(=O)CNC(=O)[C@H](CO)NC(=O)CC[C@H](NC(=O)CCCCCCCCCCCCCCCCCCC(=O)O)C(=O)O)C(=O)N[C@@H](CC(C)C)C(=O)N[C@@H](CCC(N)=O)C(=O)N[C@H](C(=O)N[C@@H](Cc1ccc(O)cc1)C(=O)N1CCC[C@H]1C(=O)N[C@@H](CCCNC(=N)N)C(=O)N[C@H](C(=O)N[C@@H](CC(N)=O)C(=O)N[C@H](C(=O)NCC(=O)N[C@@H](CO)C(=O)NCC(=O)N[C@H](C(=O)N1CCC[C@H]1C(N)=O)[C@@H](C)O)[C@@H](C)O)[C@@H](C)O)[C@@H](C)O [Compound 7]
– | 172.7 | CC(C)C[C@H](NC(=O)[C@H](CCCCN)NC(=O)CNC(=O)[C@H](CC(C)C)NC(=O)[C@@H](NC(=O)[C@@H]1CSSC[C@H](N)C(=O)N[C@@H](CO)C(=O)N[C@@H](CC(N)=O)C(=O)N[C@@H](CC(C)C)C(=O)N[C@@H](CO)C(=O)N[C@@H]([C@@H](C)O)C(=O)N1)C(C)C)C(=O)N[C@@H](CO)C(=O)N[C@@H](CCC(N)=O)C(=O)N[C@@H](CCC(=O)O)C(=O)N[C@@H](CC(C)C)C(=O)N[C@@H](Cc1c[nH]cn1)C(=O)N[C@@H](CCCCNC(=O)COCCOCCOCCOCCOCCOCCNC(=O)CC[C@H](NC(=O)CCCCCCCCCCCCCCCCCCC(=O)O)C(=O)O)C(=O)N[C@@H](CC(C)C)C(=O)N[C@@H](CCC(N)=O)C(=O)N[C@H](C(=O)N[C@@H](Cc1ccc(O)cc1)C(=O)N1CCC[C@H]1C(=O)N[C@@H](CCCNC(=N)N)C(=O)N[C@H](C(=O)N[C@@H](CC(N)=O)C(=O)N[C@H](C(=O)NCC(=O)N[C@@H](CO)C(=O)NCC(=O)N[C@H](C(=O)N1CCC[C@H]1C(N)=O)[C@@H](C)O)[C@@H](C)O)[C@@H](C)O)[C@@H](C)O [Compound 6, Cys-Ser-Asn-Leu-Ser-Thr-Cys-Val-Leu-Gly-Lys-Leu-Ser-Gln-Glu-Leu-His-Lys(PEG6CH2CO-yGlu-eicosanedioic acid)-Leu-Gln-Thr-Tyr-Pro-Arg-Thr-Asn-Thr-Gly-Ser-Gly-Thr-Pro-NH2]
